Test results from PMC5869686 (Journal of the American Chemical Society, 2018).

Molecular target: succinate dehydrogenase (mitochondrial Sdh, complex II) (Bos taurus, UniProt P35720+Q3T189+Q95123)
Assay: colorimetric mitochondrial complex II activity assay
Type: biochemical

Sequence of succinate dehydrogenase (mitochondrial Sdh, complex II) (P35720 30-169): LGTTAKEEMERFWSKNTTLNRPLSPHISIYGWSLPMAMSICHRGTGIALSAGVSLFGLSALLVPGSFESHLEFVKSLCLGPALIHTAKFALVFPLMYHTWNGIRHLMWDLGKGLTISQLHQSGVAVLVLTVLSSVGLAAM
Sequence of succinate dehydrogenase (mitochondrial Sdh, complex II) (Q3T189 29-280): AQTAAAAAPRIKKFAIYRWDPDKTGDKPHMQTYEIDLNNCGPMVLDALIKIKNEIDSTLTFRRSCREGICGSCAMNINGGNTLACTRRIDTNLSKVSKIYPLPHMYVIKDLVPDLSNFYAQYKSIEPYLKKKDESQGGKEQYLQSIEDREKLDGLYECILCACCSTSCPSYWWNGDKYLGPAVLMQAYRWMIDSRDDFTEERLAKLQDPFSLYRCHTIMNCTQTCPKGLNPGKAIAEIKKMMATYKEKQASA
Sequence of succinate dehydrogenase (mitochondrial Sdh, complex II) (Q95123 56-158): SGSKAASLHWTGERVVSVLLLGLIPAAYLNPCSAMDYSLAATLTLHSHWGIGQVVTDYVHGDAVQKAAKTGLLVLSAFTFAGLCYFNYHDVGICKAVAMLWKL
Sequence of succinate dehydrogenase (mitochondrial Sdh, complex II) (P31039 44-665 partner): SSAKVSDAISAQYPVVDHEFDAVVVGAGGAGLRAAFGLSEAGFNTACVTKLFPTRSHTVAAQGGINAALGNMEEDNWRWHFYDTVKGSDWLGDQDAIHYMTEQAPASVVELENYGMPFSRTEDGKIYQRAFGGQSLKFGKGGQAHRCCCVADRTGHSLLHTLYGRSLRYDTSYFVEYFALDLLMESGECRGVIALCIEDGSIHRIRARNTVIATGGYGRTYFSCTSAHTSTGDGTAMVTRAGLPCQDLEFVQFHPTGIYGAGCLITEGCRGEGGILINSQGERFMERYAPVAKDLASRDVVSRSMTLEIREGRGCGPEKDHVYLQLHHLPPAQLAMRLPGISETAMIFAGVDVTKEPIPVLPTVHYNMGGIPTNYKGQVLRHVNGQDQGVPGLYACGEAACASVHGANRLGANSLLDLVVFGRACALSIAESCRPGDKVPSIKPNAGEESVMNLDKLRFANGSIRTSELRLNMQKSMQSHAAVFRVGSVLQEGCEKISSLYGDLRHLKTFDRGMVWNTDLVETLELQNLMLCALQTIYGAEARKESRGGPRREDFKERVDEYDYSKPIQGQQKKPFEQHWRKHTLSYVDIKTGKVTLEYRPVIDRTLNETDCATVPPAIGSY

Substance: promysalin [(-)-1]
- IC50: 2.5 µM
